Test results: patent publication US7534763B2 (Bristol-Myers Squibb Company, priority 2004, dated 2009)
Read-outs that look alike come from different tables or passages of the source. Where a SMILES comes first, the peptide text is derived from it. [ ]: non-standard residue; d: D form. The star is where a group is joined. ξ: configuration not given here. Ala(6-(2-MePh)pyridin-3-yl) = Cc1ccccc1-c1ccc(C[C@H](N)C(=O)O)cn1; Phe(4-(2-Et-4-HO-Ph)) = CCc1cc(O)ccc1-c1ccc(C[C@H](N)C(=O)O)cc1; Bip(2'-Et-4'-OMe) = CCc1cc(OC)ccc1-c1ccc(C[C@H](N)C(=O)O)cc1; αMePhe(2-F) = C[C@](N)(Cc1ccccc1F)C(=O)O; ξαMePhe(2-F) = CC(N)(Cc1ccccc1F)C(=O)O; ξαMeP = CC1(C(=O)O)CCCN1; Aib = CC(C)(N)C(=O)O; Moc = COC(=O)*

Columns and labels:
[1] = Solubility of protamine/Compound of SEQ ID NO:9 adduct and in protamine solution; format: physicochemical; conditions: MeOH
From the text: Thus, the administration of the protamine/Compound of SEQ ID NO:9 adduct may need a suitable suspending agent; or it maybe injected as dry powder.
Therefore, suspension of the compound of SEQ ID NO:9 in the presence of protamine could still provide extended release effect without using pre-formed protamine/SEQ ID NO:9 adduct.

[2] = Exposure during ipGTT in ob/ob mice; format: in vivo; conditions: sc
Procedure: (§1) Peptides were dissolved in an appropriate vehicle at a concentration in nmol/ml equivalent to the dose that was to be administered in nmol/kg so that each mouse would receive the same volume/weight of dosing solution. Male C57BL/6J-ob/ob mice (10 weeks old) were randomized into groups of 6 mice per group based on fed plasma glucose and body weight. After an overnight fast, mice were weighed and placed in the experimental lab. After 30 min in the environment, the mice were bled via tail tip at −30 min and immediately injected subcutaneously (sc) with vehicle or the peptide dissolved in vehicle (0.1 ml solution/100 g body weight). At time 0 the mice were bled and then injected intraperitoneally with 50% glucose (2 g/kg) to initiate the intraperitoneal glucose tolerance test (ipGTT). The mice were bled 30, 60, 120 and 180 min after the glucose injection. Blood samples were drawn into potassium EDTA, placed on ice during the study and subsequently centrifuged for 10 min at 3000 rpm at 4° C. Plasma samples were diluted 11-fold for glucose analysis in the Cobas System. Another 5 μl plasma sample was diluted 5-fold with 20 μl of Sample Diluent (Insulin ELISA assay kit, Crystal Chem Inc.) and stored at −20° C. for subsequent analysis using the Ultra Sensitive Mouse Insulin ELISA kit (Crystal Chem Inc.).

[3] = Solubility of compound of SEQ ID NO:9 in the presence of Zn(II) / Zn adduct; format: physicochemical; conditions: pH 6.8, 50 mM phosphate buffer
Procedure: Once the Zn/Compound of SEQ ID NO:9 adduct was formed, formulation development studies were conducted in order to evaluate the solubility of the compound of SEQ ID NO:9 in the presence of Zn(II). An excess amount of the compound of SEQ ID NO:9 was suspended in pH 6.8, 50 mM phosphate buffer. The suspension was then placed on an orbital shaker (Model, 100 RPM) at ambient temperature for 12 hours. The suspension was then centrifuged (Model, speed) and the saturated the clear supernatant of the compound of SEQ ID NO:9 was collected into 10 ml centrifuge tubes. A predetermined amount of zinc acetate solution (50 mM, pH 6.8 phosphate buffer) was added into the saturated solution and then precipitated. The concentration of the compound of SEQ ID NO:9 in solution was obtained by centrifuging the suspension and analyzing the clear supernatants by HPLC.
To confirm that the Zn/Compound of SEQ ID NO:9 binding is reversible, the Zn/Compound of SEQ ID NO:9 adduct was suspended in pH 6.8, 50 mM phosphate buffer. A strong chelating agent for Zn(II), EDTA, was added into the suspension in excess amount. The Zn/Compound of SEQ ID NO:9 suspension with and without EDTA was centrifuged and the supernatants were injected into HPLC.

[4] = Dog pharmacokinetic study (iv and sc, solution vehicles); format: in vivo; conditions: for half-life: read-out: t½ (converted)
Procedure: The pharmacokinetic parameters of the compound of SEQ ID NO:9 were determined in male beagle dogs (n=4, 14±1 kg). Following an overnight fast, each animal received the compound of SEQ ID NO:9 either as an intravenous bolus via femoral vein (67 μg/kg) or by subcutaneous injection given at near the shoulder blades (67 μg/kg). Each animal received both intravenous and subcutaneous doses with a one-week washout between doses following a crossover design. […] Serial blood samples were collected in EDTA-containing microcentrifuge tubes at predose, 0.083, 0.25, 0.5, 0.75, 1, 2, 4, 6, 8, 24, and 30 hours post-dose after intravenous administration; at predose, 0.25, 0.5, 0.75, 1, 2, 4, 6, 8, 24, and 30 hours post-dose after subcutaneous administration. Approximately 0.3 mL of blood was collected at each time point. Blood samples were immediately centrifuged at 4° C. The obtained plasma was frozen with dry ice and stored at −20° C. Plasma drug levels were determined using the LC-MS/MS assay described above.
Plasma samples from in vivo dog study were prepared for analysis by precipitating plasma proteins with two volumes of acetonitrile containing an internal standard. The samples were vortex mixed and removed the precipitated proteins by centrifugation. The resulting supernatants were transferred to a 96-well plate and 10 μL were injected for analysis. Samples were prepared with the Packard Multiprobe II and Quadra 96 Liquid Handling System.
The HPLC system consisted of two Shimadzu LC10AD pumps (Columbia, Md.), a CTC PAL autosampler (Leap Technologies, Switzerland). The column used was a YMC Hydrosphere C18 (2.0×50 mm, 3 μm) (YMC, Inc., Milford, Ma.). The column temperature was maintained at 50° C. and the flow rate was 0.3 mL/minute. The mobile phase A consisted of 10 mM ammonium formate and 0.1% formic acid in water and mobile phase B consisted of 0.1% formic acid in acetonitrile. The initial mobile phase composition was 5% B, and remained at 5% B for one minute to equilibrate the column. The composition was ramped to 95% B over two minutes and held there for one additional minute. The mobile phase was then returned to initial conditions in one minute. Total analysis time was five minutes. A switching valve was used. The eluents between 0-1 minute were diverted to the waste.
The HPLC was interfaced to a Sciex API 4000 mass spectrometer, (Applied Biosystems, Foster City, Calif.) and was equipped with a TurboIonspray ionization source. Ultra high purity nitrogen was used as the nebulizing and turbo gas. The temperature of turbo gas was set at 300° C. and the interface heater was set at 60° C. Data acquisition utilized selected reaction monitoring (SRM). Ions representing the (M+2H)^2+ species for the compound of SEQ ID NO:9, and (M+2H)^2+ for BMS-501143 (IS) were selected in Q1 and were collisionally dissociated with high purity nitrogen at a pressure of 3.5×10^−3torr to form specific product ions which were subsequently monitored by Q3.
The standard curve concentrations, ranging from 1 to 1000 nM and from 4 to 5000 nM, were used for the in vivo samples obtained from low and high doses, respectively. The curves were fitted with a quadratic regression weighted by reciprocal […]. Standards were analyzed in duplicate. Quality control (QC) samples, prepared in blank matrix at the same concentrations as the standard were also analyzed in each analytical set. For the compound of SEQ ID NO:9, the calculated concentrations of more than 80% of the QCs were within 20% of nominal concentration, indicating acceptable assay performance.
The compound of SEQ ID NO:9 plasma concentration vs. time data were analyzed by noncompartmental methods using the […]™ software program. The Cmax and Tmax values were recorded directly from experimental observations. The AUC0-n and AUCtot values were calculated using a combination of linear and log trapezoidal summations. […]

ob/ob mice = experiment: intraperitoneal glucose tolerance test (ipGTT) after sc injection in ob/ob mice (plasma glucose, insulin); format: in vivo; conditions: for % AUC Reduction in Plasma Glucose in an IP Glucose Tolerance Test after SC Injection of Compound: 10 nmol/kg, vs vehicle group; for effect on postprandial plasma glucose (in words): ipGTT 0-180 or 210 min; for Potency in ob/ob mice, ED50: sc injection, ipGTT, plasma glucose AUC
Procedure: as §1

[5] = male, beagle, plasma, sc, 67 ug/kg, dog, subcutaneous 67 μg/kg, propylene glycol:phosphate buffer (50:50)
[6] = beagle, plasma, 67 ug/kg, dog, intravenous 67 μg/kg, Tables 6A-6C (6A vehicle 0.2 M Tris, pH 8.0)
[7] = beagle, plasma, sc, 67 ug/kg, dog, subcutaneous 67 μg/kg, Tables 6A-6C (vehicle 0.2 M Tris, pH 8.0)

CCc1cc(OC)ccc1-c1ccc(C[C@H](NC(=O)[C@H](CC(=O)O)NC(=O)[C@H](CO)NC(=O)[C@@H](NC(=O)[C@](C)(Cc2ccccc2F)NC(=O)[C@@H](NC(=O)CNC(=O)[C@H](CCC(=O)O)NC(=O)C(C)(C)NC(=O)[C@@H](N)Cc2c[nH]cn2)[C@@H](C)O)[C@@H](C)O)C(=O)N[C@@H](Cc2ccc(-c3ccccc3C)nc2)C(N)=O)cc1 [SEQ ID NO: 9] (H-H[Aib]EGT[αMePhe(2-F)]TSD[Bip(2'-Et-4'-OMe)][Ala(6-(2-MePh)pyridin-3-yl)]-NH2)
solubility [1]: > 50000 µg/mL
Exposure/dose during ipGTT in ob/ob mice [2]: 18 nM * h/nmol/kg
solubility thermodynamic ([3]; aqueous buffer, 25° C., excess EDTA): 18 µg/mL
solubility in the presence of Zn(II) / of the Zn adduct (in words) [3]: continued to decrease until below the detection limit of HPLC
Exposure in dogs (sc@67 μg/kg) ([4]; Table I, vehicle 0.2 M Tris buffer (pH 8.0)): 0.452 µM·h
Vss relative to extracellular fluid ([4]; dog, iv, extracellular fluid 0.14 L/kg): 71 % of extracellular fluid
systemic clearance as % of liver blood flow ([4]; dog, iv, liver blood flow 31 mL/min/kg): 3.2 % of liver blood flow
Vss relative to vascular fluid ([4]; dog, iv, vascular fluid 0.05 L/kg): 2 times of vascular fluid
clearance ([4]; male, beagle, blood, 67 ug/kg, dog, intravenous 67 μg/kg, propylene glycol:phosphate buffer (50:50), read-out: CLB (systemic blood clearance)): 0.9 ± 0.2 mL/min/kg
MRT ([4]; male, beagle, plasma, 67 ug/kg, dog, intravenous 67 μg/kg, propylene glycol:phosphate buffer (50:50)): 3 ± 1 h
clearance ([4]; male, beagle, plasma, 67 ug/kg, dog, intravenous 67 μg/kg, propylene glycol:phosphate buffer (50:50), read-out: CLp): 0.6 ± 0.1 mL/min/kg
Vd ([4]; male, beagle, plasma, 67 ug/kg, dog, intravenous 67 μg/kg, propylene glycol:phosphate buffer (50:50), read-out: VSS): 0.1 ± 0.03 L/kg
Cmax [4, 5]: 90 ± 29 nM
Tmax [4, 5]: 5 ± 1 h
% AUC Reduction in Plasma Glucose in an IP Glucose Tolerance Test after SC Injection of Compound (ob/ob mice; ob/ob mice): −68% (p < 0.0001)
effect on postprandial plasma glucose (in words) (ob/ob mice; ob/ob mice, sc): statistically significant decrease
Potency in ob/ob mice, ED50 (ob/ob mice): 5 nmol/kg
Potency in ob/ob mice, ED50 (ob/ob mice; listed as 9): ED50 = 5 nmoles/kg

CCc1cc(OC)ccc1-c1ccc(C[C@H](NC(=O)[C@H](CC(=O)O)NC(=O)[C@H](CO)NC(=O)[C@@H](NC(=O)C(C)(Cc2ccccc2F)NC(=O)[C@@H](NC(=O)CNC(=O)[C@H](CCC(=O)O)NC(=O)C2(C)CCCN2C(=O)[C@@H](N)Cc2c[nH]cn2)[C@@H](C)O)[C@@H](C)O)C(=O)N[C@@H](Cc2ccc(-c3ccccc3C)nc2)C(N)=O)cc1 (stereo partly drawn) [SEQ ID NO: 118] (H-H[ξαMeP]EGT[ξαMePhe(2-F)]TSD[Bip(2'-Et-4'-OMe)][Ala(6-(2-MePh)pyridin-3-yl)]-NH2)
Exposure/dose during ipGTT in ob/ob mice [2]: 4.4 nM * h/nmol/kg
AUC ([4]; male, beagle, dog, plasma, sc, 67 ug/kg, Table II, vehicle propylene glycol/pH 7.4 phosphate buffer (1:1), read-out: Exposure in dogs (sc@67 μg/kg)): 4.02 µM·h
% AUC Reduction in Plasma Glucose in an IP Glucose Tolerance Test after SC Injection of Compound (ob/ob mice; ob/ob mice): −70% (p < 0.001)
plasma glucose AUC decrease (ob/ob mice; ob/ob mice, sc, 30 nmol/kg): 81%
effect on postprandial plasma glucose (in words) (ob/ob mice; ob/ob mice, sc): statistically significant decrease
Potency in ob/ob mice, ED50 (ob/ob mice): 2.5 nmol/kg

CCc1cc(O)ccc1-c1ccc(C[C@H](NC(=O)[C@H](CC(=O)O)NC(=O)[C@H](CO)NC(=O)[C@@H](NC(=O)C(C)(Cc2ccccc2F)NC(=O)[C@@H](NC(=O)CNC(=O)[C@H](CCC(=O)O)NC(=O)C2(C)CCCN2C(=O)[C@H](Cc2c[nH]cn2)NC(=O)OC)[C@@H](C)O)[C@@H](C)O)C(=O)N[C@@H](Cc2ccc(-c3ccccc3C)nc2)C(N)=O)cc1 (stereo partly drawn) [SEQ ID NO: 158] (Moc-H[ξαMeP]EGT[ξαMePhe(2-F)]TSD[Phe(4-(2-Et-4-HO-Ph))][Ala(6-(2-MePh)pyridin-3-yl)]-NH2)
Exposure/dose during ipGTT in ob/ob mice [2]: 11 nM * h/nmol/kg
MRT [4, 6]: 4.9 ± 0.7 h
AUC ([4]; beagle, plasma, 67 ug/kg, dog, intravenous 67 μg/kg, Tables 6A-6C (6A vehicle 0.2 M Tris, pH 8.0), read-out: AUCtot): 1.39 ± 0.227 µM·h
clearance ([4]; beagle, plasma, 67 ug/kg, dog, intravenous 67 μg/kg, Tables 6A-6C (6A vehicle 0.2 M Tris, pH 8.0), read-out: CLp): 0.51 ± 0.08 mL/min/kg
half-life [4, 6]: 4.4 ± 0.4 h
Cmax [4, 7]: 279 ± 82 nM
MRT [4, 7]: 5.2 ± 1.5 h
Tmax [4, 7]: 1.4 ± 0.7 h
AUC ([4]; beagle, plasma, sc, 67 ug/kg, dog, subcutaneous 67 μg/kg, Tables 6A-6C (vehicle 0.2 M Tris, pH 8.0), read-out: AUCtot): 1.47 ± 0.563 µM·h
half-life [4, 7]: 3.9 ± 1.3 h
bioavailability ([4]; beagle, plasma, dog, subcutaneous vs intravenous 67 μg/kg, Tables 6A-6C (vehicle 0.2 M Tris, pH 8.0)): 110 ± 49%
effect on postprandial plasma glucose (in words) (ob/ob mice; ob/ob mice, sc): statistically significant decrease
